# Results from the NIST ThermoML archive (doi:10.1016/j.fluid.2005.01.002).
# Values joined by “and” are separate entries in the source; they are usually repeats but may differ in a detail not shown here. Equal entries are not always repeated. ± gives the expanded uncertainty stated by the source.
# Assay: not given
# Details: 353.15 K; Liquid
row,SMILES,vapor or sublimation pressure
1,CC(C)=O [acetone],215.16 ± 1.4 kPa and 215.04 ± 1.4 kPa and 216.82 ± 5.5 kPa
2,CCO [ethanol],109.08 ± 0.72 kPa
3,CO [methanol],182.61 ± 1.2 kPa
4,CC(C)O [propan-2-ol],92.26 ± 0.62 kPa and 91.99 ± 0.61 kPa
5,C1CCOC1 [tetrahydrofuran],155.92 ± 1 kPa and 157.86 ± 1 kPa
6,O [water],47.37 ± 0.58 kPa and 47.82 ± 0.58 kPa

# Assay: activity coefficient (dimensionless); of the first substance listed, at infinite dilution; xn = mol fraction of the nth substance listed
# Details: 353.15 K; 101.33 kPa; Liquid; Static method; x1 = 0
row,SMILES,activity coefficient
1,CC(C)=O [acetone] + CCCC[n+]1ccn(C)c1.O=S(=O)([N-]S(=O)(=O)C(F)(F)F)C(F)(F)F,0.406 ± 0.01
2,CC(C)=O [acetone] + CCn1cc[n+](C)c1.O=S(=O)([N-]S(=O)(=O)C(F)(F)F)C(F)(F)F,0.438 ± 0.01
3,CC(C)=O [acetone] + COP(=O)([O-])OC.Cn1cc[n+](C)c1,0.98 ± 0.01
4,CCO [ethanol] + COP(=O)([O-])OC.Cn1cc[n+](C)c1,0.115 ± 0.01
5,CO [methanol] + COP(=O)([O-])OC.Cn1cc[n+](C)c1,0.029 ± 0.01
6,CC(C)O [propan-2-ol] + CCCC[n+]1ccn(C)c1.O=S(=O)([N-]S(=O)(=O)C(F)(F)F)C(F)(F)F,1.1 ± 0.01
7,CC(C)O [propan-2-ol] + CCn1cc[n+](C)c1.O=S(=O)([N-]S(=O)(=O)C(F)(F)F)C(F)(F)F,1.42 ± 0.02
8,C1CCOC1 [tetrahydrofuran] + CCn1cc[n+](C)c1.O=S(=O)([N-]S(=O)(=O)C(F)(F)F)C(F)(F)F,0.8 ± 0.01
9,C1CCOC1 [tetrahydrofuran] + COP(=O)([O-])OC.Cn1cc[n+](C)c1,3.21 ± 0.05
10,O [water] + CCCC[n+]1ccn(C)c1.O=S(=O)([N-]S(=O)(=O)C(F)(F)F)C(F)(F)F,2.27 ± 0.03
11,O [water] + CCn1cc[n+](C)c1.O=S(=O)([N-]S(=O)(=O)C(F)(F)F)C(F)(F)F,2.32 ± 0.04
12,O [water] + COP(=O)([O-])OC.Cn1cc[n+](C)c1,0.028 ± 0.01
